These are literature values, as cited in patent publication US12728106B2, “Multiparticulate pharmaceutical composition of tamsulosin and solifenacin” (priority 2020, dated 2026).

Like-named read-outs stand apart in the source and are kept apart here.

On to `O=C(O[C@H]1CN2CCC1CC2)N1CCc2ccccc2[C@@H]1c1ccccc1` [Solifenacin succinate, butanedioic acid compound with (1S)-(3R)-1-azabicyclo[2.2.2]oct-3-yl 3,4-dihydro-1-phenyl-2(1H)-iso-quinolinecarboxylate (1:1)], for which the “Solubility in dimethyl sulfoxide” value (room temperature, dimethyl sulfoxide) is listed as “freely soluble”. Further, under “room temperature, glacial acetic acid”, the “Solubility in glacial acetic acid” value is “freely soluble”. Moreover, the Solubility in methanol result (room temperature, methanol) is on record as “freely soluble”. Moreover, the Solubility in water entry (room temperature) is given as “freely soluble”.
For `CCOc1ccccc1OCCN[C@H](C)Cc1ccc(OC)c(S(N)(=O)=O)c1.Cl` [Tamsulosin hydrochloride, (−)-(R)-5-[2-[[2-(o-Ethoxyphenoxy)ethyl]amino]propyl]-2methoxybenzenesulfonamide, monohydrochloride], the Solubility in water result is listed as “sparingly soluble”.
